Experimental data: the COVID Moonshot data (paper PMC11187573), “Identification of SARS-CoV-2 Mpro inhibitors through deep reinforcement learning for de novo drug design and computational chemistry approaches” (RSC Medicinal Chemistry, 2024)

Experiments:
[1] = biological target: SARS-CoV-2 Main Protease (SARS-CoV-2) (UniProt P0DTD1)
Procedure: Compounds were seeded into assay-ready plates (Greiner 384 low volume, cat 784900) using an Echo 555 acoustic dispenser, and DMSO was back-filled for a uniform concentration in assay plates (DMSO concentration maximum 1%) Screening assays were performed in duplicate at 20µM and 50µM. […] Dose response assays were performed in 12 point dilutions of 2-fold, typically beginning at 100µM. […] Reagents for Mpro assay were dispensed into the assay plate in 10µl volumes for a final volume of 20µL.
Mpro was pre-incubated for 15 minutes at room temperature with compound before addition of substrate and a further 30 minute incubation. Protease reaction was measured in a BMG Pherastar FS with a 480/520 ex/em filter set. Raw data was mapped and normalized to high (Protease with DMSO) and low (No Protease) controls using Genedata Screener software.

[2] = biological target: SARS-CoV-2 Main Protease (SARS-CoV-2) (UniProt P0DTD1); remark: listed apart in the source
Procedure: Briefly, compounds were seeded into assay-ready plates (Greiner 384PP, cat# 781280) using an ECHO 650T dispenser and DMSO was back-filled for a uniform concentration in assay plates (DMSO concentration < 1%, final volume = 500 nL.). […] After a quick centrifugation step (1000 rpm, 15 s) the plate is incubated for 15 min at room temperature. […] After centrifugation (1000 rpm, 14 s) the reaction is incubated for 10 min (11-mer) or 5 min (37-mer) at room temperature before quenching with 10 % formic acid. The reactions are analysed with MS using RapidFire (RF) 365 high-throughput sampling robot (Agilent) connected to an iFunnel Agilent 6550 accurate mass quadrupole time-of-flight (Q-TOF) mass spectrometer using electrospray. […] Dose response curves uses an 11-point range of 100--0.0017 µM inhibitor concentrations. RapidFire integrator software (Agilent) was used to extract the charged states from the total ion chromatogram data followed by peak integration. For the 11-mer peptide the m/z (+1) charge states of both the substrate (1191.67 Da) and cleaved N-terminal product TSAVLQ (617.34 Da) were used and the 37-mer peptide the m/z (+2) charge states of the substrate (3960.94 Da) and m/z (+1) of the cleaved C-terminal product [sequence] (1125.57 Da). Percentage conversion (product peak integral / (product peak integral + substrate peak integral))*100) and percentage inhibitions were calculated and normalised against DMSO control with deduction of any background signal in Microsoft Excel. IC50s were calculated using Levenberg–Marquardt algorithm used to fit a restrained Hill equation to the dose-response data with both GraphPad PRISM and CDD.

Row | Structure (SMILES) | inhibition ([1]; 20.0 µM) [%] | inhibition ([1]; 50.0 µM) [%] | inhibition ([2]; 50.0 µM) [%] | relative solubility at 20 uM | relative solubility at 100 uM | inhibition ([2]; 20.0 µM) [%] | IC50 [2] [µM] | IC50 [1] [µM]
1 | CC(=O)N[C@@H](C)C(=O)Nc1cnccc1C (stereo in doubt) | -12.3 | -7.91 | -0.127 | 1 | 1 |  |  | 
2 | C=CC(=O)NCc1ccc(C(C)NC(=O)OC(C)(C)C)cc1 (configuration not stated) |  | 6.84 | 0 | 1 | 1.01 | 0 |  | 
3 | O=C(CNc1c(-c2ccccc2)nc2ccccn12)N/N=C/c1cccc2ccccc12 | 13.8 | 17.8 | 7.53 | 0.5 | 0.5 |  |  | 
4 | O=C1/C(=C/c2ccc(O)cc2)c2ccccc2C(=O)N1Cc1ccc2c(c1)OCO2 | 6.21 | -3.72 | 20.1 | 0.62 | 0.48 |  |  | 
5 | CCn1c(CSc2nc(C)c(C)n2CC2CCCO2)nc2cc(S(=O)(=O)N(C)C)ccc21 (configuration not stated) | -23.6 | -3.59 |  | 0.85 | 0.84 |  |  | 
6 | COCC1CCN(c2ccc(S(N)(=O)=O)cc2)CC1 |  | -23.1 | 44 | 0.99 | 1 | 22.3 |  | 
7 | CC(=O)N1CCN(Cc2cn(-c3cccc(S(N)(=O)=O)c3)nn2)CC1 | -2.75 | 1.36 | 5.73 | 0.95 | 0.97 | 2.3 |  | 
8 | Cc1nnc(NC(=O)Cc2cccc(Cl)c2F)n1C | -12.7 | -10.8 | 0 | 1.01 | 1 |  |  | 
9 | N#Cc1cnn(-c2ccccc2NC(=O)Cc2ccn[nH]2)c1N | -9.14 | 2.96 |  | 1 | 0.96 | 0 |  | 
10 | O=C(Nc1cnccc1CO)C1CCOc2ccc(Cl)cc21 (configuration not stated) |  |  |  | 0.94 | 0.93 |  |  | 
11 | Cc1nnc(NC(=O)[C@@H]2COc3ccc(Cl)cc32)n1C1CC1 (stereo in doubt) |  |  |  | 1 | 1 |  |  | 
12 | O=C(/C=C/C=C/c1ccc2c(c1)OCO2)N1CCCCC1 |  |  |  | 1 | 0.97 | 0 |  | 
13 | Cc1ccncc1NC(=O)Cc1cc(Cl)cc(OC2CC(=O)N2)c1 (configuration not stated) |  |  |  | 0.99 | 1 |  |  | 
14 | N#Cc1cccc(C2CN(C(=O)CCl)Cc3ccccc32)c1 (configuration not stated) | 98.8 | 95.3 |  | 1 | 0.99 |  |  | 
15 | O=C(CCl)N1CCN(Cc2ccsc2)CC1 | 98.8 | 99.4 |  | 1 | 0.99 |  |  | 
16 | O=C(CCl)Nc1cccc(N2CCCC2=O)c1 | 27.1 | 51.4 |  | 1 | 1 |  |  | 
17 | O=C(CCl)N1CCN(Cc2cccs2)CC1 | 94.5 | 99 |  | 1 | 1 |  |  | 
18 | CNc1ccc(N(Cc2ccsc2)C(=O)Cn2nnc3ccccc32)cc1 | 57.1 | 82.6 |  | 0.99 | 0.77 |  |  | 
19 | Cc1ccncc1NC(=O)Cc1cccc(Cl)c1 |  |  |  | 1 | 1 |  |  | 
20 | C=CC(=O)N1CC(NCC2=CNC3C=CC(C#N)=CC23)C1 (configuration not stated) |  |  |  | 1 | 0.95 |  |  | 
21 | O=S(=O)(Nc1ccccc1SCc1cccc(Cl)c1F)c1cc(Cl)sc1Cl | 90.3 | 81.3 |  |  |  |  | 1.92 | 
22 | CC(C)(C)c1ccc(-c2nnc(Sc3cnc([N+](=O)[O-])s3)o2)cc1 | 8.3 | 69.9 |  |  |  |  | 0.164 | 4.16
23 | CNCCN(C)C(=O)C(=O)N1Cc2ccccc2C(c2ccccc2)C1 (configuration not stated) | -1.83 | -2.83 | 0 |  |  |  |  | 
24 | Cc1cccc(NC(=O)CN2C(=O)C(=O)c3ccccc32)c1 | -4.74 | -1.42 | 53.7 |  |  |  | 42.4 | 
